Laboratory results reported in patent publication US9120728B2, “Modulators of cortical dopaminergic- and NMDA-receptor-mediated glutamatergic neurotransmission” (INTEGRATIVE RESEARCH LABORATORIES SWEDEN AB, priority 2011, dated 2015).

Test system: drug-naive rats
Assay: Effects on spontaneous locomotion (locomotor activity in drug-naive rats)
Format: in vivo, rat
Conditions: recorded for 60 minutes immediately after drug administration
Method: Prior art dopamine receptor antagonists are known to induce profound decrease in locomotor activity (catalepsy).
Behavioural activity is measured using eight Digiscan activity monitors (RXYZM (16) TAO, Omnitech Electronics, Columbus, Ohio, USA), connected to an Omnitech Digiscan analyzer and an Apple Macintosh computer equipped with a digital interface board (NB DIO-24, National Instruments, USA). Each activity monitor consists of a quadratic metal frame (W×L=40 cm×40 cm) equipped with photobeam sensors. During measurements of behavioural activity, a rat is put in a transparent acrylic cage (WxLxH, 40×40×30 cm) which in turn is placed in the activity monitor. Each activity monitor is equipped with three rows of infrared photobeam sensors, each row consisting of 16 sensors. Two rows are placed along the front and the side of the floor of the cage, at a 90° angle, and the third row is placed 10 cm above the floor to measure vertical activity. Photobeam sensors are spaced 2.5 cm apart. Each activity monitor is fitted in an identical sound and light attenuating box containing a weak house light and a fan.
The computer software is written using object oriented programming (LabVIEW®, National instruments, Austin, Tex., USA).
Behavioural data from each activity monitor, representing the position (horizontal center of gravity and vertical activity) of the animal at each time, are recorded at a sampling frequency of 25 Hz and collected using a custom written LABView™ application. The data from each recording session are stored and analyzed with respect to distance traveled. Each behavioural recording session lasts 60 min, starting approximately 4 min after the injection of test compound. Similar behavioural recording procedures are applied for drug-naïve and drug pre-treated rats. Rats pre-treated with d-amphetamine are given a dose of 1.5 mg/kg i.p. 10 min before the recording session in the activity monitor. Rats pre-treated with MK-801 are given a dose of 0.7 mg/kg i.p. 90 min before the recording session in the activity monitor. The results are presented as counts/60 minutes, or counts/30 minutes, in arbitrary length units. Statistical comparisons are carried out using Student's t-test against the control group. In MK-801 or amphetamine pre-treated animals, statistical comparisons are made against the MK801 or d-amphetamine controls, respectively.

Q: Which results are given for `CCCNCCOc1cc(F)cc(S(C)(=O)=O)c1` [Example 1, N-[2-(3-fluoro-5-methylsulfonyl-phenoxy)ethyl]propan-1-amine]?
A: Locomotor activity (3.7 μmol/kg): 8049 counts/60 min; Locomotor activity (11 μmol/kg): 7325 counts/60 min; Locomotor activity (33 μmol/kg): 6025 counts/60 min
